Data set [1] is described as follows: planar lipid bilayer reconstitution, electrophysiology. The protocol: The 29-mer ATAP peptide ([…]) (SEQ ID NO.: 36) corresponding to the C-terminus of Bfl1 and its mutant mHR7 (KFEP-KSGWMTFLQVTG-LICQMLSLLKQYC) (SEQ ID NO.: 50) were synthesized by Abgent (San Diego, Calif.) with 99% purity as measured by HPLC and mass spectrometry. The peptides were dissolved in DMSO to make a 10 mM stock. Phospholipids were purchased from Avanti Polar Lipids (Birmingham, Ala.). Electrophysiological analysis was performed as described (Lam et al., 1998; Ma et al., 1988). Lipid bilayer membranes were formed across an aperture of 200 μm diameter with a 1:1 mixture of bovine brain phosphatidylethanolamine and bovine brain phosphatidylserine dissolved in n-decane at a concentration of 50 mg/ml. The recording solutions contained: cis, 200 mM KCl and 10 mM HEPES-Tris (pH 7.4); trans, 50 mM NaCl, 10 mM HEPES-Tris (pH 7.4). 1 n1 of 10 mM peptides dissolved in DMSO were added into 900 n1 of cis solution and fused into the bilayer. Voltage manipulation and currents were measured using an Axopatch 200 A amplifier (Axon Instruments, Foster City, Calif.). Data analyses were preformed with pClamp and TIPS software.

Data set [2] concerns mitochondria membrane isolated from BMK-D3 cells. The experiment in a line: in vitro cytochrome c release from isolated mitochondria. Type of data set: biochemical, mouse. The note with it: synthetic peptide 100 μM, 1 hour at 37° C. The protocol: Mitochondria-free cytosol was prepared as previously described (Ko et al., 2003a). Briefly, 24 hours after transfection, HEK293 cells were collected by scraping, washed twice with ice-cold PBS, suspended in […] extraction buffer (50 mM PIPES-KOH, pH 7.4, 200 mM mannitol, 70 mM sucrose, 50 mM KCl, 5 mM EGTA, 2 mM MgCl2, 1 mM dithiothreitol and protease inhibitors), and incubated on ice for 30 minutes. Cells were lysed by Dounce homogenization and homogenates were centrifuged at 100,000 g for 15 minutes at 4° C. Supernatants were harvested and 20 μg of protein was analyzed by western blotting using monoclonal anticytochrome c antibody. For in vitro analysis of cytochrome c release, heavy membranes enriched in mitochondria were isolated from BMK-D3 cells using a mitochondria fractionation kit (Active Motif) according to the instructions of the manufacturer. Isolated mitochondria were diluted to a concentration of 1 mg/ml in the extraction buffer and incubated with synthetic ATAP or mHR7 peptides (100 μM) or DMSO as control for 1 hour at 37° C. The reactions were then centrifuged at 13,000 g for 10 minutes and the resulting pellets and supernatants were analyzed by SDS-PAGE.

The subject of data set [3] is E. coli. The data set is described as follows: toxicity of bacterial expression. The note with it: data not shown. Type of data set: cell-based.
Data set [4] concerns HEK293 cells. The data set is described as follows: cell death by propidium iodide (PI) staining / exclusion after transfection. Type of data set: cell-based. The note with it: HEK293, 24 h after transfection. The procedure: (§1) Apoptotic cell death was monitored after transfection of expression plasmids into HEK293, HeLa, MCF-7 or BMK D3 cells. 2×10^5 cells were cultured in 35-mm wells for 24 hours in Dulbecco's modified Eagle's medium (DMEM) supplemented with 10% fetal bovine serum. Cells were transfected using the Lipofectamine 2000 reagent (Invitrogen), with 1 μg of the indicated expression plasmids and further cultured in the absence or presence of 50 μM of pan-caspase inhibitor, Q-VD-OPH (OPH, Enzyme Systems Products). For morphological assessment of apoptotic cell death, cells were plated onto LabTek II chamber slides (Nalgen Nunc International) at densities of 5×10^4 cells per well. 24 hours after transfection, cells were washed with phosphate-buffered saline (PBS) prior to fixation with 4% formaldehyde. […] Cell death was also measured by propidium iodide (PI) exclusion. […] Cells were observed and photographed with a fluorescence microscope at three different fields containing approximately 200 GFP-positive cells. GFP and PI double-positive cells were counted as dead cells. Quantitative analysis of cell viability was determined by _-galactosidase reporter assay according to the procedures as described (Chittenden et al., 1995; Wood and Newcomb, 2000). […] At 24 hours following transfection, cells were harvested and β-galactosidase activity was measured using β-Galactosidase Enzyme Assay System (Promega). […]

In data set [5] the test system is HEK293 cells. The experiment in a line: β-galactosidase reporter assay of cell viability after co-transfection. Type of data set: cell-based. The note with it: HEK293, 24 h after co-transfection, n=5. The protocol: as §1
On the technique in general: Reporter assays use an easily measured gene product as a stand-in for the process of interest.

On to “KFEP-KSGWMTFLQVTG-LICQMLSLLKQYC (KFEPKSGWMTFLEVTGLICEMLSLLKQYC; (1)..(29) K163L - ATAP; listed as Homo sapiens) [mHR7 peptide, synthetic mutant of the 29-mer ATAP peptide]”, for which, in data set [1] (peptide 11-44 μM, n=35), the “changes in membrane conductance” value is recorded as “did not induce any notable changes in membrane conductance”. For the same molecule, the “cytochrome c release from isolated mitochondria” value in data set [2] is “not observed”.

In the case of “KFEPKSGWMTFLEVTGKICEMLSLLKQYC ((1)..(29) ATAP peptide derived from residues 147-175 of Bfl-1; listed as Homo sapiens) [29-mer amphipathic tail-anchoring peptide corresponding to the C-terminus of Bfl1 (a.a. 147-175)]”, the “reversal potential for currents” value in data set [1] (200 mM KCl (cis) / 50 mM NaCl (trans)) was approximately −30 mV. Also, in data set [1] (peptide >22.2 μM, n>30), the “rupture of the lipid bilayer, time after addition of the peptide” value is not above 30 min. For the same molecule, the “cytochrome c release from isolated mitochondria” value in data set [2] is on record as “induced release of cytochrome c”. Also, the “toxicity of expression in E. coli” value in data set [3] is listed as “lysis of the cells”; in data set [3] (listed as Bfl-1 TA peptide), “toxic to E. coli cell growth”.

B1: FLAG-Bfl-1: FLAG-tagged full-length Bfl-1 (protein, UniProt Q16548 1-175, looked up)
chain: MTDCEFGYIYRLAQDYLQCVLQIPQPGSGPSKTSRVLQNVAFSVQKEVEKNLKSCLDNVNVVSVDTARTLFNQVMEKEFEDGIINWGRIVTIFAFEGILIKKLLRQQIAPDVDTYKEISYFVAEFIMNNTGEWIRQNGGWENGFVKKFEPKSGWMTFLEVTGKICEMLSLLKQYC
modifications: full-length FLAG tag
As to B1, in data set [4], the “cell death by PI staining” value is given as “no toxic effect”. This molecule gave a β-galactosidase activity in data set [5] of 1.11±0.06 fold over control.
